Laboratory results: PMC9578396, “Intrinsic Antibacterial Activity of Xeruborbactam In Vitro: Assessing Spectrum and Mode of Action” (Antimicrobial Agents and Chemotherapy, 2022)
pIC50: −log10 of the molar value. Values after ≈ are worked out from the molar mass of the structure shown. Values joined by “and” are separate entries in the source; they are usually repeats but may differ in a detail not shown here. Equal entries are not always repeated. Where two headings read alike, the source gives them in different places.

What was measured:
[1] = tested on: Acinetobacter baumannii; test: Broth microdilution MIC (CLSI), Acinetobacter baumannii; assay type: cell-based
Outline: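 MICs by CLSI broth microdilution in in-house panels. Strains tested were engineered strains carrying porin and efflux mutation combinations, KPC-producing clinical isolates and derivatives cured of KPC plasmids, and KPC-producing clinical isolates enriched for porin mutations.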

[2] = tested on: Enterococcus faecalis; test: MIC, Enterococcus faecalis; assay type: cell-based
Source text: Bacterial isolates were subjected to broth microdilution susceptibility testing, performed according to Clinical and Laboratory Standards Institute (CLSI) methods ([46]), using panels prepared in-house. Meropenem was purchased from Sandoz, and all other antibiotics were from Sigma-Aldrich. Xeruborbactam was synthesized at Qpex Biopharma, San Diego, CA. Avibactam was purchased from eNovation Chemicals LLC, Bridgewater, NJ, USA; zidebactam was from MedKoo Biosciences, Inc., Morrisville, NC, and nacubactam was from Advanced ChemBlocks, Hayward, CA. Durlobactam was synthesized at Acme Bioscience, Palo Alto, CA, USA.

[3] = tested on: A. baumannii strain ATCC 17978; test: Fluorescence microscopy, cellular morphology; assay type: cell-based, Acinetobacter baumannii; details: xeruborbactam, meropenem 1× and 2× MIC; aztreonam 2× MIC; amdinocillin 2 μg/mL
Procedure: Single colonies of K. pneumoniae strain KPM1026a, A. baumannii strain ATCC 17978, and P. aeruginosa strain PAM1154 were picked from LB agar plates, inoculated in cation-adjusted Mueller-Hinton broth (CA-MHB), and incubated overnight at 30°C with rolling. Overnight cultures were diluted into fresh CA-MHB and incubated at 30°C, with rolling, until they reached an OD600 of ≈0.12 to 0.15 (equivalent to ~2 × 10^8 CFU/mL). Samples were then treated with compounds and incubated at 30°C, with rolling. After 1 or 2 h of treatment, cells were collected and stained with a dye mix containing FM4-64 (1 μg/mL), DAPI (4′,6-diamidino-2-phenylindole) (2 μg/mL), and SYTOX green (0.5 μM) (Molecular Probes, Invitrogen, or Thermo Fisher Scientific). Cells were transferred onto an agarose pad containing 1.2% agarose and 20% LB medium for microscopy. Microscopy was performed as previously described ([34]).

[4] = target: T1, PBP1a (Escherichia coli, UniProt P02918); set-up: method as in PMID 18250190; details: read-out: IC50, PBP1a; value in parentheses; E. coli MC1400; cited from earlier work
T1 construct: Five microliters of total bacterial membrane preparation was mixed with 5 μL of a test compound; endogenous in cells; host or cells: Escherichia coli ECM5497 (MG1655), total membrane preparation

[5] = Acinetobacter baumannii, strain ACM1013, ΔadeIJK
[6] = Acinetobacter baumannii, strain ACM1014, ΔadeABC
[7] = Acinetobacter baumannii, strain ACM1015, ΔadeIJK ΔadeABC
[8] = Acinetobacter baumannii, strain ACM1027, adeN (AdeIJK overexpression)
[9] = Acinetobacter baumannii, strain ACM1030, adeS (AdeABC overexpression)
[10] = Carbapenem-resistant Acinetobacter baumannii, 505 isolates

T1 sequence (P02918 whole entry): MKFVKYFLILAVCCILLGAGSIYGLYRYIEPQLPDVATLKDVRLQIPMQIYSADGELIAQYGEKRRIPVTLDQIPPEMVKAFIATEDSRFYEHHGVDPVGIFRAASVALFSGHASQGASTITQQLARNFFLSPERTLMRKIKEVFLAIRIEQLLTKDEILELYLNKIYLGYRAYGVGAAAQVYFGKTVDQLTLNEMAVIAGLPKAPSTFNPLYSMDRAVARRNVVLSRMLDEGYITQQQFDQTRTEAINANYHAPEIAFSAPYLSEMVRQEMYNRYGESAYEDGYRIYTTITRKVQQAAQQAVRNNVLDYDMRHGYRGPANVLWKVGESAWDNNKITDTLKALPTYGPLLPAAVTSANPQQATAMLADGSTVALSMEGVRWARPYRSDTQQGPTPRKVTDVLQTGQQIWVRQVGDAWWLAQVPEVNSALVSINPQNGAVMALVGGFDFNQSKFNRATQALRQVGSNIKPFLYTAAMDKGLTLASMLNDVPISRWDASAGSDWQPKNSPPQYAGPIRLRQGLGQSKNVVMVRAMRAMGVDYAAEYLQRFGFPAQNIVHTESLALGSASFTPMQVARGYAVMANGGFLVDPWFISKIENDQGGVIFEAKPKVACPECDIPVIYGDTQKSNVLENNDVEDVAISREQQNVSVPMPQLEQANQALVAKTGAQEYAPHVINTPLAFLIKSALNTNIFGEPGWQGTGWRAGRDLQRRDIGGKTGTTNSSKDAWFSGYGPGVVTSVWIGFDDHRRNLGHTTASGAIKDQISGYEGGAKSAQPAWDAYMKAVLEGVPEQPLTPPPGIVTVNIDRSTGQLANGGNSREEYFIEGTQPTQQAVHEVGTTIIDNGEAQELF

| SMILES | MIC [1, 5] [µg/mL] | MIC [1, 6] [µg/mL] | MIC [1, 7] [µg/mL] | MIC [1, 8] [µg/mL] | MIC [1, 9] [µg/mL] | MIC ([2]; efs003) [µg/mL] | MIC ([2]; efs004) [µg/mL] | MIC ([2]; efs005) [µg/mL] | MIC ([2]; efs006) [µg/mL] | MIC ([2]; efs007) [µg/mL] | MIC ([2]; efs026) [µg/mL] | MIC ([2]; efs071) [µg/mL] | MIC ([2]; efs072) [µg/mL] | MIC ([2]; efs073) [µg/mL] | MIC ([2]; efs090) [µg/mL] | MIC ([2]; efs091) [µg/mL] | MIC ([2]; efs092) [µg/mL] | MIC ([2]; efs093) [µg/mL] | MIC ([2]; efs094) [µg/mL] | MIC ([2]; efs095) [µg/mL] | also measured |
| --- | --- | --- | --- | --- | --- | --- | --- | --- | --- | --- | --- | --- | --- | --- | --- | --- | --- | --- | --- | --- | --- |
| C[C@@H](O)[C@H]1C(=O)N2C(C(=O)O)=C(S[C@@H]3CN[C@H](C(=O)N(C)C)C3)[C@H](C)[C@H]12 [Meropenem] | 0.125 | 0.125 | 0.06 | 1 | 0.5 | 2 (≈ 5.22 µM) | 4 (≈ 10.4 µM) | 4 (≈ 10.4 µM) | 2 (≈ 5.22 µM) | 4 (≈ 10.4 µM) | 2 (≈ 5.22 µM) | 4 (≈ 10.4 µM) | 2 (≈ 5.22 µM) | 4 (≈ 10.4 µM) | 1 (≈ 2.61 µM) | 1 (≈ 2.61 µM) | 8 (≈ 20.9 µM) | 16 (≈ 41.7 µM) | > 32 | 4 (≈ 10.4 µM) | MIC ([1]; Acinetobacter baumannii, ATCC17978): 0.25 µg/mL and 0.66 µM; MIC ([2]; efs096): 4 µg/mL (≈ 10.4 µM); cellular morphology [3]: swelling and rounding but not elongation; pIC50 [4]: 5.36 |
| O=C(O)c1c(F)ccc2c1OB(O)[C@@H]1C[C@H]21 [Xeruborbactam] | 4 | 16 | 4 | 32 | 16 | > 32 | > 32 | > 32 | > 32 | > 32 | > 32 | > 32 | > 32 | > 32 | > 32 | > 32 | > 32 | > 32 | > 32 | > 32 | MIC ([1]; Acinetobacter baumannii ACM1320 (ATCC 17978)): 16 µg/mL; MIC ([1]; Acinetobacter baumannii ACM1320 (ATCC 17978), read-out: MIC): 72 µM; MIC ([1]; Acinetobacter baumannii, 505 isolates of carbapenem-resistant A. baumannii, read-out: modal MIC): 32 µg/mL; MIC ([1]; Acinetobacter baumannii, AB1007 (no beta-lactamase), xeruborbactam 0 µg/ml, read-out: MIC): 16 µg/mL; MIC ([1]; Acinetobacter baumannii, ATCC17978, Acinetobacter baumannii ACM1320 (ATCC 17978), read-out: MIC): 72 µM and 16 µg/mL; MIC ([1]; Acinetobacter baumannii, ATCC17978, strain ATCC 17978 (Fig. 6), read-out: MIC): 16 µg/mL; MIC ([1]; Acinetobacter baumannii, pumpless strain of A. baumannii, read-out: MIC): 18 µM and 4 µg/mL; MIC ([1]; Acinetobacter baumannii, strain AB1007, wild type, read-out: MIC): 16 µg/mL; MIC ([1]; Acinetobacter baumannii, strain AB1007, read-out: MIC): 16 µg/mL; MIC50 [1, 10]: 16 µg/mL; MIC90 [1, 10]: 64 µg/mL; fold MIC decrease ([1]; adeIJK inactivation): 4 fold; fold MIC increase ([1]; adeIJK overexpression): 2 fold; MIC ([2]; all the E. faecalis strains, n = 16): > 32 µg/mL; MIC ([2]; efs096): > 32 µg/mL; cellular morphology [3]: cell shape deformation, from coccobacilli to a football shape |
